US4883798A, “Pharmaceutical compositions” (EGIS Gyogyszergyar, priority 1987, dated 1989)
Read-outs that look alike come from different tables or passages of the source.

Assays:
[1] = test system: Wistar rats; experiment: Antipyretic effect in rats (brewer yeast-induced fever); type: in vivo, rat (Wistar)
Experimental: The experiments were performed in groups of 10 Wistar rats of both sexes weighing 160-200 g. Fever was induced by 20% brewer yeast suspended in 0.9% saline solution, applied subcutaneously in a volume of 2 ml/rat distributed at various sites of the back. After 18 hours the test compound or the vehicle (control) was administered in volume of 10 ml./kg p.o. During this period the rats were fasted but received drinking water ad libitum. The rectal temperature of the animals was measured with a Thermotest thermometer 2 days before the administration of the test compound and after treatment every 60th minute. Animals with an increase of body temperature less than 0.8° C. were excluded from the experiment.
(§1) The above tests are carried out by standard methods. […] Pharmacodyn. […] A., Risley E. A., Nuss, G. W.: Proc. Soc.

[2] = Acute toxicity in mice (p.o., 14 days observation); details: mouse, in vivo, po
Experimental: The experiments were performed in CFLP white mice of both sexes of 18-22 g body weight in groups of at least 10 animals. The test compound was applied p.o. dissolved in a solution containing 0.2% Tween-80 in distilled water in a volume of 20-30 ml/kg. The observation period after treatment lasted for 14 days. Statistical evaluation was carried out as described by Litchfield-Wilcoxon's method.
The above tests are carried out by standard methods. Reference is made to the following citations: Litchfield, J. T., Wilcoxon, F.: J. Pharmacol. Exp. Ther., 96, 99-113 (1949); Newbould, B. B.: Brit. J. Pharmacol. 35, 487 (1969); Shay, H., Kemarov, S. A., Fels, S. S., Meranze, D., Gruenstein, M., Siplet, H.: Gastroenterology 5, 45 (1945); Stickney, J. C., Northup, D. W., Van Liere, E. J.: Arch. int. Pharmacodyn. 147, 113 (1964); Winter, C. A., Risley E. A., Nuss, G. W.: Proc. Soc. Exp. Biol. Med. 111, 544-547 (1962).

[3] = test system: rats; experiment: Analgesic activity "Writhing test" in rats (acetic acid i.p.); type: in vivo, rat; details: p.o., 1 hour before acetic acid i.p.
Experimental: Rats weighing 130-170 g were administered intraperitoneally 0.75% (v/v) acetic acid in a volume of 8 ml/kg. Five minutes after treatment with acetic acid the total number of characteristic writhing reactions was counted for 10 minutes and expressed as percentage of the control group.
as §1

[4] = test system: granulocytes; experiment: Measurement of chemiluminescence of granulocytes (PHA-stimulated, luminol); type: cell-based, human (healthy volunteers); details: Homo sapiens, 0.25 h, read-out: IC50, chemiluminescence of granulocytes
Experimental: The test-compounds were dissolved in dimethyl-sulfoxide (DMSO) in a concentration of 10^-1 M, dilutions were made in the incubation medium employed. Heparinized blood (10 IU/ml) was taken from healthy volunteers. The blood was diluted with equal wolume of dextran, then the white blood cells were separated by sedimentation. The granulocytes were separated by Uromio gradient. […] The cell suspension was put in dark box for 15 min. Luminol was dissolved in concentrated NH4 OH and diluted in the following solution:
50 ml Tris-Parker medium (containing 1,2 g Tris, pH=7,4)
150 ml Parker tissue culture medium
4 ml glucose 40% w/v in water
The Luminol solution (500 μl) was measured in plastic vials and put in dark (37° C.). The reaction was started by addition of the cells and stimulating agent (Phytohaemaglutinin-PHA-10 μg/ml).
The vials were continuously and gently shaken and the PHA stimulation was measured in every 2,5 min. for 15 min. in a Beckmann LS-100 spectrometer (coincidence switched off). The percentage of the counts measured was calculated in comparison with the solvent treated control cells. At least 5 concentrations of each compound were investigated in at least 3 parallels.

[5] = PHA 10 μg/ml stimulation, luminol 32 μM, 37° C., 15 min

SMILES	Maximal temperature decrease ([1]; 200 mg/kg p.o.) [°C]	LD50 at 336 h [2] [mg/kg]	Analgesic effect on rats, Therapeutical Index [3]	IC50 [4, 5] [µM]	Maximal temperature decrease ([1]; 100 mg/kg p.o.) [°C]	IC50 [4] [µM]
CC(=O)Oc1ccccc1C(=O)O [Acetylsalicylic acid, reference compound]	1.0	–	–	–	–	–
COc1ccc(Cc2cnc(N)nc2N)cc1 [Example 1, 2,4-Diamino-5-(4-methoxy-benzyl)-pyrimidine]	0.9	~350	about 8.1	~100	–	–
COc1cccc(Cc2cnc(N)nc2N)c1 [Example 2, 2,4-Diamino-5-(3-methoxy-benzyl)-pyrimidine]	–	~410	about 5.9	~100	–	–
COc1cc(Cc2cnc(N)nc2N)cc(OC)c1 [Example 3, 2,4-Diamino-5-(3,5-dimethoxy-benzyl)-pyrimidine]	–	~800	about 8.0	–	–	–
COc1ccc(Cc2cnc(N)nc2N)c(OC)c1 [Example 4, 2,4-Diamino-5-(2,4-dimethoxy-benzyl)-pyrimidine]	–	~2000	about 33.3	–	–	–
COc1cccc(Cc2cnc(N)nc2N)c1OC [Example 5, 2,4-Diamino-5-(2,3-dimethoxy-benzyl)-pyrimidine]	–	~500	about 5.0	–	–	–
Nc1ncc(Cc2ccc3c(c2)OCO3)c(N)n1 [Example 6, 2,4-Diamino-5-(3,4-methylenedioxy-benzyl)-pyrimidine]	–	~750	about 57.7	–	1.0	–
CCOc1ccc(Cc2cnc(N)nc2N)cc1OC [Example 7, 2,4-Diamino-5-(3-methoxy-4-ethoxy-benzyl)-pyrimidine]	–	~350	about 7.6	~1	0.7	–
C=CCOc1ccc(Cc2cnc(N)nc2N)cc1OC.Cl [Example 8, 2,4-Diamino-5-(3-methoxy-4-allyloxy-benzyl)-pyrimidine-hydrochloride]	–	~1500	about 42.9	~1	0.8	–
CCCCOc1ccc(Cc2cnc(N)nc2N)cc1OC [Example 9, 2,4-Diamino-5-(3-methoxy-4-n-butoxy-benzyl)-pyrimidine]	–	> 2000	> 125.0	~1	–	–
COCCOc1ccc(Cc2cnc(N)nc2N)cc1OC [Example 10, 2,4-Diamino-5-(3-methoxy-4-methoxyethoxy-benzyl)-pyrimidine]	–	< 500	< 14.3	–	–	–
COc1cc(Cc2cnc(N)nc2N)ccc1OCc1ccccc1 [Example 11, 2,4-Diamino-5-(3-methoxy-4-benzyloxy-benzyl)-pyrimidine]	–	> 2000	> 37.0	–	–	–
Br.COc1cc(Cc2cnc(N)nc2N)ccc1O [Example 12, 2,4-Diamino-5-(3-methoxy-4-hydroxy-benzyl)-pyrimidine-hydrobromide]	–	> 2000	> 40.0	–	–	–
COc1ccc2c(c1)c(CC(=O)O)c(C)n2C(=O)c1ccc(Cl)cc1 [Indomethacin, 1-(p-chloro-benzoyl)-5-methoxy-2-methyl-1H-indole-3-acetic acid, reference compound]	–	22.5	4.8	–	–	100
CCCCC1C(=O)N(c2ccccc2)N(c2ccccc2)C1=O [Phenylbutazone, 3,5-dioxo-1,2-diphenyl-4-(n-butyl)-pyrazolidine, reference compound]	–	–	–	100	–	–
CN1C(C(=O)Nc2ccccn2)=C(O)c2ccccc2S1(=O)=O [Piroxicam, 4-hydroxy-2-methyl-N-2-pyridyl-2H-1,2-benzothiazine-3-carboxamide-1,1-dioxide, reference compound]	–	–	–	100	–	–
